According to the NIST ThermoML archive (doi:10.1021/je700699u):

Assay: cn = amount concentration of the nth substance listed, in mol/dm3
Settings: 101 kPa, Liquid

CSCCC(N)C(=O)[O-].[K+] (stereo not drawn) [potassium salt of DL-methionine] + O
Settings | mass density, 298.15 K [kg/m3] | mass density, 303.15 K [kg/m3] | mass density, 313.15 K [kg/m3] | mass density, 323.15 K [kg/m3] | mass density, 333.15 K [kg/m3] | viscosity, 298.15 K [mPa·s] | viscosity, 303.15 K [mPa·s] | viscosity, 313.15 K [mPa·s] | viscosity, 323.15 K [mPa·s] | viscosity, 333.15 K [mPa·s]
c1 = 0.252 | 1016 | 1014 | 1010 | 1006 | 1003 | 0.987 | 0.884 | 0.722 | 0.608 | 0.519
c1 = 0.503 | 1033 | 1032 | 1027 | 1023 | 1020 | 1.109 | 0.987 | 0.806 | 0.675 | 0.575
c1 = 0.732 | 1051 | 1049 | 1044 | 1039 | 1037 | 1.263 | 1.125 | 0.909 | 0.754 | 0.64
c1 = 0.994 | 1067 | 1065 | 1060 | 1055 | 1053 | 1.425 | 1.264 | 1.019 | 0.84 | 0.708
c1 = 1.252 | 1084 | 1083 | 1077 | 1072 | 1069 | 1.654 | 1.478 | 1.161 | 0.952 | 0.799
c1 = 1.479 | 1100 | 1098 | 1093 | 1087 | 1085 | 1.883 | 1.657 | 1.316 | 1.071 | 0.893

N[C@@H](Cc1ccccc1)C(=O)[O-].[K+] [potassium L-phenylalaninate] + O
Settings | mass density, 298.15 K [kg/m3] | mass density, 303.15 K [kg/m3] | mass density, 313.15 K [kg/m3] | mass density, 323.15 K [kg/m3] | mass density, 333.15 K [kg/m3] | viscosity, 298.15 K [mPa·s] | viscosity, 303.15 K [mPa·s] | viscosity, 313.15 K [mPa·s] | viscosity, 323.15 K [mPa·s] | viscosity, 333.15 K [mPa·s]
c1 = 0.25 | 1015 | 1014 | 1010 | 1005 | 1001 | 1.059 | 0.938 | 0.769 | 0.641 | 0.549
c1 = 0.496 | 1032 | 1031 | 1027 | 1022 | 1017 | 1.224 | 1.092 | 0.884 | 0.738 | 0.631
c1 = 0.745 | 1051 | 1049 | 1044 | 1039 | 1034 | – | – | – | – | –
c1 = 0.746 | – | – | – | – | – | 1.441 | 1.279 | 1.032 | 0.852 | 0.72
c1 = 0.996 | 1067 | 1065 | 1060 | 1055 | 1049 | 1.695 | 1.495 | 1.194 | 0.98 | 0.823
c1 = 1.226 | 1084 | 1081 | 1077 | 1071 | 1066 | – | – | – | – | –
c1 = 1.227 | – | – | – | – | – | 2.03 | 1.782 | 1.41 | 1.15 | 0.963
c1 = 1.453 | 1100 | 1097 | 1092 | 1087 | 1081 | 2.483 | 2.169 | 1.702 | 1.377 | 1.139
